From patent publication US10736872B1, “Pharmaceutical mixture to treat statin induced vascular calcification” (priority 2019, dated 2020)

What was measured:
Format in all cases: cell-based
human aortic SMC = test: Expression of osteoblast markers in AoSMC (immunoassay); conditions: 100 mcM ascorbic acid, 5 mM beta-glycerophosphate and 25 mcM forskolin, 4 weeks, FIG. 3A
[1] = test system: human aortic smooth muscle cells (AoSMC); test: Alkaline phosphatase activity assay in AoSMC; conditions: for decrease in ALP activity: 5 mM b-GP, 25 mcM forskolin; for increase of ALP activity / increase of ALP activity compared to control / increase in ALP activity compared to control: 1 mcM statin; for increase of ALP activity compared to control / increase in ALP activity compared to control: four days; for increase of ALP activity compared to control: FIG. 4A; for increase in ALP activity compared to control: pro-calcification condition (5 mM b-GP and 25 mcM forskolin), FIG. 4B
Experimental: Alkaline phosphatase activity assay in AoSMC: AoSMC were plated in 96 well plates and grown to confluent layer. […] Cells were washed with phosphate buffered saline (PBS) and supplemented with 50 mcl/well 25 mcg/ml 4-MUP (fluorescent ALP substrate, Sigma) in alkaline buffer (Sigma)/1% Triton X100 for 1 h at room temperature. Fluorescence was measured at 360/450 nm.
Statistical analysis: Results in figures are means±standard deviation (SD) from three or more repetitions from the most representative of at least two independent experiments. Differences between samples were estimated with a two-tailed Student's t-test using Excel software (Microsoft) and accepted as significant at p levels less than 0.05. The results in FIGS. 4A and 4B and FIGS. 5A and 5B are expressed as percentage of supplemented controls and presented as means±SD from six or more repetitions from the most representative of at least two independent experiments.
The calcification process of AoSMC was evaluated by the activity of cellular alkaline phosphatase (ALP). The study assessed the effects of Mixture 1 (micronutrient combination containing ascorbate) and ascorbate individually under standard (5% FBS/DMEM) and pro-calcification conditions (5% FBS/DMEM supplemented with 5 mM beta-glycerophosphate (b-GP) and 25 mcM forskolin—FIG. 4B).

[2] = test system: human dermal fibroblasts (DF); test: Expression of osteoblast markers in human dermal fibroblasts (immunoassay); conditions: 100 mcM ascorbic acid, 5 mM beta-glycerophosphate and 25 mcM forskolin, 4 weeks, FIG. 3B
[3] = test system: human aortic smooth muscle cells (AoSMC); test: Calcium accumulation in extracellular matrix of AoSMC
Experimental: Cell viability was monitored with MTT assay. […] Plant-derived micronutrients suppress monocyte adhesion to cultured human aortic endothelial cell layer by modulating its extracellular matrix composition. J Cardiovasc Pharmacol 2008; 52:55-65. After four washes with PBS, ECM layers were solubilized by incubation in 0.6N HCl for 48 hours at 37° C. Calcium content in solubilized samples was measured with TECO Ca assay according to the manufacturer's protocol. […] The calcification process of AoSMC was evaluated by the activity of cellular alkaline phosphatase and calcium accumulation in the cell-produced extracellular matrix (FIG. 1).

[4] = 300 mcM ascorbate, regular growth medium, FIG. 1
[5] = 100 mcM ascorbate in the presence of simvastatin, without forskolin, FIG. 2A
[6] = plain 5% FBS/DMEM, five days, FIG. 5A
[7] = pro-calcification conditions (5 mM b-GP, 25 mcM forskolin), five days, FIG. 5B

## O=C1O[C@H]([C@@H](O)CO)C(O)=C1O [ascorbic acid, L-ascorbic acid]
Human aortic SMC
  expression of all tested osteogenic markers: significantly reduced
[1]; 300 mcM ascorbate in the presence of 1 mcM simvastatin, plain 5% FBS/DMEM, five days, FIG. 5A
  ALP activity after addition of ascorbate: decreased to control level
[1]; 300 mcM ascorbate, mevastatin containing samples, five days, FIG. 5B
  decrease in ALP activity: 37%
[1]; 300 mcM ascorbate, pravastatin containing samples, five days, FIG. 5B
  decrease in ALP activity: 24%
[1]; [4]
  decrease of alkaline phosphatase activity: 80%
[1]; 300 mcM ascorbate, simvastatin containing samples, five days, FIG. 5B
  decrease in ALP activity: 36%
[1]; 300 mcM ascorbic acid in the absence of statins, five days, FIG. 5B
  decrease in ALP activity: 29%
[1]; 300 mcM ascorbic acid in the presence of 1 mcM mevastatin, plain 5% FBS/DMEM, five days, FIG. 5A
  decrease of statin-stimulated ALP activity: 29%
[1]; 300 mcM ascorbic acid in the presence of 1 mcM pravastatin, plain 5% FBS/DMEM, five days, FIG. 5A
  decrease of statin-stimulated ALP activity: 30%
[1]; 300 mcM ascorbic acid, no statin, plain 5% FBS/DMEM, five days, FIG. 5A
  decrease of alkaline phosphatase activity: about 43%
[2]
  expression of all tested osteogenic markers: significantly reduced
[3]; 100 mcM ascorbate added in the presence of mevastatin, with forskolin, FIG. 2B, to below control values
  decrease of calcium accumulation: 19%
[3]; [5]
  accumulated calcium: 0.2 mcg/well
  decrease of accumulated calcium: 54%
[3]; [4]
  decrease of extracellular Ca accumulation by AoSMC: 20%

## CC[C@H](C)C(=O)O[C@H]1CCC=C2C=C[C@H](C)[C@H](CC[C@@H]3C[C@@H](O)CC(=O)O3)[C@H]21 [mevastatin]
[1]; [6]
  increase of ALP activity: 61%
[1]; plain 5% FBS/DMEM
  increase of ALP activity compared to control: 25%
[1]
  increase in ALP activity compared to control: 39%
[1]; [7]
  increase of ALP activity: 41%
[3]; 1 mM mevastatin, with 25 mcM forskolin, FIG. 2B, control 1.35 mcg/well
  calcium accumulation: 1.8 mcg/well

## CC[C@H](C)C(=O)O[C@H]1C[C@H](O)C=C2C=C[C@H](C)[C@H](CC[C@@H](O)C[C@@H](O)CC(=O)O)[C@H]21 [pravastatin]
[1]; [6]
  increase of ALP activity: 60%
[1]; plain 5% FBS/DMEM
  increase of ALP activity compared to control: 39%
[1]
  increase in ALP activity compared to control: 25%
[1]; [7]
  increase of ALP activity: 25%

## CCC(C)(C)C(=O)O[C@H]1C[C@@H](C)C=C2C=C[C@H](C)[C@H](CC[C@@H]3C[C@@H](O)CC(=O)O3)[C@H]21 [simvastatin]
[1]; [6]
  increase of ALP activity: 57%
[1]
  increase in ALP activity compared to control: 22%
[1]; [7]
  increase of ALP activity: 30%
[3]; simvastatin, without forskolin, FIG. 2A
  increase of calcium accumulation in AoSMC layers: 23%
